Patent US12018021B2 (UCB Biopharma SRL, priority 2018, dated 2024)

What follows are compounds tested against IgE-Tb / sFcεRIα-Y131A-AF488 (Homo sapiens, UniProt P01854, N146Q/N252Q) (assay: IgE-Tb / sFcεRIα-Y131A-AF488 FRET assay (protocol for examples 234 to 501)). Settings: examples 234 to 501: compound with IgE-Tb 30 minutes before sFcεRIα-Y131A-AF488, incubated 18 hours at room temperature; read-out: Y131A FRET IC50 range.
Format: binding
How it was run: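 Compounds (10-point 3-fold series, top usually 10 μM, 2% DMSO) preincubated 30 min with 5 nM IgE-Tb, then 25 nM sFcεRIα-Y131A-AF488 added; 18 h at room temperature in the dark. TR-FRET ratio 520/490 nm after 337 nm excitation, background-subtracted; IC50 by four-parameter logistic fit.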

IgE-Tb / sFcεRIα-Y131A-AF488, sequence (P01854 whole entry N146Q/N252Q): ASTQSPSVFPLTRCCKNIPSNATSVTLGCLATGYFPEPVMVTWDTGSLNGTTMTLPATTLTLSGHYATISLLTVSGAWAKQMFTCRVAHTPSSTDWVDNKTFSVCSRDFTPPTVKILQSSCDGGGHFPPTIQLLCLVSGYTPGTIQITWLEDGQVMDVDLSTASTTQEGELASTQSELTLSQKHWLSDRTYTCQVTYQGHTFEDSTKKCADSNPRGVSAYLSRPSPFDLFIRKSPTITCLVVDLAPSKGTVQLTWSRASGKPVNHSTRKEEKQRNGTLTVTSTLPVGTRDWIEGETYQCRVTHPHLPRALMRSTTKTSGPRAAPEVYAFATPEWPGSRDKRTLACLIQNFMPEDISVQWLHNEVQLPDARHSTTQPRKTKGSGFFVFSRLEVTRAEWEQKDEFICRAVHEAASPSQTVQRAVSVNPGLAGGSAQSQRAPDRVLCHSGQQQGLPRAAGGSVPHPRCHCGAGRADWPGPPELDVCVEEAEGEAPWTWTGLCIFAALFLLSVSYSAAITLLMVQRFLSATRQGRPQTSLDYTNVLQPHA

Row | SMILES | IC50 [µM]
1 | COc1ccc(Nc2nncn2[C@H]2CCc3sc(NC(=O)C4CC4)c(C(=O)NCC4CC4)c3C2)c(C)n1 [Example 432, (5S)-2-(cyclopropanecarbonylamino)-N-(cyclopropylmethyl)-5-[3-[(6-methoxy-2-methyl-3-pyridyl)amino]-1,2,4-triazol-4-yl]-4,5,6,7-tetrahydrobenzothiophene-3-carboxamide] | < 1
2 | Cn1nc(OC(F)F)cc1Nc1nncn1[C@H]1CCc2sc(NC(=O)[C@H]3C[C@@H]3F)c(C(=O)NCC3CC3)c2C1 [Example 313, (5S)—N-(cyclopropylmethyl)-5-[3-[[5-(difluoromethoxy)-2-methyl-pyrazol-3-yl]amino]-1,2,4-triazol-4-yl]-2-[[(1R,2S)-2-fluorocyclopropanecarbonyl]amino]-4,5,6,7-tetrahydrobenzothiophene-3-carboxamide] | < 1
3 | CCNC(=O)N1CC[C@H](Nc2nncn2[C@H]2CCc3sc(NC(=O)C4CC4)c(C(=O)NCC4CC4)c3C2)C1 [Example 288, (3S)-3-[[4-[(5S)-2-(cyclopropanecarbonylamino)-3-(cyclopropylmethylcarbamoyl)-4,5,6,7-tetrahydrobenzothiophen-5-yl]-1,2,4-triazol-3-yl]amino]-N-ethyl-pyrrolidine-1-carboxamide] | < 1
4 | Cn1nc(C(F)F)cc1Nc1nncn1[C@H]1CCc2sc(NC(=O)[C@H]3C[C@H](F)C3)c(C(=O)NC[C@H]3C[C@H](F)C3)c2C1 (single isomer, unassigned) [Example 474] | < 1
5 | Cn1nc(OC(F)F)cc1Nc1nncn1[C@H]1CCc2sc(NC(=O)[C@H]3C[C@H](F)C3)c(C(=O)NC[C@H]3C[C@H](F)C3)c2C1 [Example 486, (5S)-5-[3-[[5-(difluoromethoxy)-2-methylpyrazol-3-yl]amino]-1,2,4-triazol-4-yl]-2-[trans-(3-fluorocyclobutanecarbonyl)amino]-N-[trans-(3-fluorocyclobutyl)methyl]-4,5,6,7-tetrahydro-1-benzothiophene-3-carboxamide] | < 1
6 | C[C@H]1C[C@@H]1C(=O)Nc1sc2c(c1C(=O)N[C@H]1C[C@H](F)C1)C[C@@H](n1cnnc1Nc1cc(C(F)F)nn1C)CC2 [Example 438, (5S)-5-[3-[[5-(difluoromethyl)-2-methylpyrazol-3-yl]amino]-1,2,4-triazol-4-yl]-N-(trans-3-fluorocyclobutyl)-2-[[(1S,2S)-2-methylcyclopropanecarbonyl]amino]-4,5,6,7-tetrahydro-1-benzothiophene-3-carboxamide] | < 1
7 | CS(=O)(=O)N1CC[C@H](Nc2nncn2[C@H]2CCc3sc(NC(=O)C4CC4)c(C(=O)NCC4CC4)c3C2)C1 [Example 267, (5S)-2-(cyclopropanecarbonylamino)-N-(cyclopropylmethyl)-5-[3-[[(3S)-1-methylsulfonylpyrrolidin-3-yl]amino]-1,2,4-triazol-4-yl]-4,5,6,7-tetrahydrobenzothiophene-3-carboxamide] | < 1
8 | Cn1nc(OC(F)(F)F)cc1Nc1nncn1[C@H]1CCc2sc(NC(=O)[C@H]3C[C@H]3F)c(C(=O)NCC3CC3)c2C1 [Example 292, (5S)—N-(cyclopropylmethyl)-2-[[(1R,2R)-2-fluorocyclopropanecarbonyl]amino]-5-[3-[[2-methyl-5-(trifluoromethoxy)pyrazol-3-yl]amino]-1,2,4-triazol-4-yl]-4,5,6,7-tetrahydrobenzothiophene-3-carboxamide] | < 1
9 | Cn1nc(C(F)F)cc1Nc1nncn1[C@H]1CCc2sc(NC(=O)C3CC3)c(C(=O)NC[C@H]3CC34CC4)c2C1 (single isomer, unassigned) [Example 386] | < 1
10 | Cn1nc(OC(F)F)cc1Nc1nncn1[C@H]1CCc2sc(NC(=O)C3CC3)c(C(=O)NCC3CCC3)c2C1 [Example 445, (5S)—N-(cyclobutylmethyl)-2-(cyclopropanecarbonylamino)-5-[3-[[5-(difluoromethoxy)-2-methylpyrazol-3-yl]amino]-1,2,4-triazol-4-yl]-4,5,6,7-tetrahydro-1-benzothiophene-3-carboxamide] | < 1
11 | Cn1nc(C(F)F)cc1Nc1nncn1[C@H]1CCc2sc(NC(=O)[C@H]3CC34CC4)c(C(=O)N[C@H]3CC34CC4)c2C1 [Example 414, (5S)-5-[3-[[5-(difluoromethyl)-2-methyl-pyrazol-3-yl]amino]-1,2,4-triazol-4-yl]-2-[[(2S)-spiro[2.2]pentane-2-carbonyl]amino]-N-[(25)-spiro[2.2]pentan-2-yl]-4,5,6,7-tetrahydrobenzothiophene-3-carboxamide] | < 1
12 | Cn1nc(C(F)F)cc1Nc1nncn1[C@H]1CCc2sc(NC(=O)[C@H]3C[C@H](F)C3)c(C(=O)NCC3CCC3)c2C1 [Example 473, (5S)—N-(cyclobutylmethyl)-5-[3-[[5-(difluoromethyl)-2-methylpyrazol-3-yl]amino]-1,2,4-triazol-4-yl]-2-[trans-(3-fluorocyclobutanecarbonyl)amino]-4,5,6,7-tetrahydro-1-benzothiophene-3-carboxamide] | < 1
13 | Cn1nc(OC(F)F)cc1Nc1nncn1[C@H]1CCc2sc(NC(=O)C3CC3(F)F)c(C(=O)NCC3CC3)c2C1 (mixture of isomers) [Example 344, (5S)—N-(cyclopropylmethyl)-2-[(2,2-difluorocyclopropanecarbonyl)amino]-5-[3-[[5-(difluoromethoxy)-2-methylpyrazol-3-yl]amino]-1,2,4-triazol-4-yl]-4,5,6,7-tetrahydro-1-benzothiophene-3-carboxamide] | < 1
14 | CC1CCCCC1Nc1nncn1[C@H]1CCc2sc(NC(=O)C3CC3)c(C(=O)NCC3CC3)c2C1 (single isomer, unassigned) [Example 269] | < 1
15 | Cn1nc(OC(F)(F)Cl)cc1Nc1nncn1[C@H]1CCc2sc(NC(=O)C3CC3)c(C(=O)NCC3CC3)c2C1 [Example 295, (5S)-5-[3-[[5-[chloro(difluoro)methoxy]-2-methyl-pyrazol-3-yl]amino]-1,2,4-triazol-4-yl]-2-(cyclopropanecarbonylamino)-N-(cyclopropylmethyl)-4,5,6,7-tetrahydrobenzothiophene-3-carboxamide] | < 1
16 | Cn1nc(C(F)F)cc1Nc1nncn1[C@H]1CCc2sc(NC(=O)[C@H]3CC34CC4)c(C(=O)NC[C@@H]3C[C@@H]3F)c2C1 [Example 420, (5S)-5-[3-[[5-(Difluoromethyl)-2-methyl-pyrazol-3-yl]amino]-1,2,4-triazol-4-yl]-N-[[(1S,2S)-2-fluorocyclopropyl]methyl]-2-[[(2S)-spiro[2.2]pentane-2-carbonyl]amino]-4,5,6,7-tetrahydrobenzothiophene-3-carboxamide] | < 1
17 | O=C(NCC1CC1)c1c(NC(=O)C2CC2)sc2c1C[C@@H](n1cnnc1NC1CCC3(CCN(c4ncccn4)C3)C1)CC2 (single isomer, unassigned) [Example 289] | < 1
18 | Cn1nc(C(F)F)cc1Nc1nncn1[C@H]1CCc2sc(NC(=O)[C@H]3CC34CC4)c(C(=O)NC[C@H]3CC3(F)F)c2C1 (single isomer, unassigned) [Example 410] | < 1
19 | Cn1nc(OC(F)(F)Cl)cc1Nc1nncn1[C@H]1CCc2sc(NC(=O)[C@H]3C[C@H]3F)c(C(=O)NCC3CC3)c2C1 [Example 293, (5S)-5-[3-[[5-[chloro(difluoro)methoxy]-2-methyl-pyrazol-3-yl]amino]-1,2,4-triazol-4-yl]-N-(cyclopropylmethyl)-2-[[(1R,2R)-2-fluorocyclopropanecarbonyl]amino]-4,5,6,7-tetrahydrobenzothiophene-3-carboxamide] | < 1
20 | Cn1nc(C(F)F)cc1Nc1nncn1[C@H]1CCc2sc(NC(=O)[C@H]3CC34CC4)c(C(=O)NC[C@H]3C[C@@H]3F)c2C1 [Example 413, (5S)-5-[3-[[5-(Difluoromethyl)-2-methylpyrazol-3-yl]amino]-1,2,4-triazo-4-yl]-N-[[(1R,2S)-2-fluorocyclopropyl]methyl]-2-[[(25)-spiro[2.2]pentane-2-carbonyl]amino]-4,5,6,7-tetrahydro-1-benzothiophene-3-carboxamide] | < 1
21 | Cn1nc(C(F)F)cc1Nc1nncn1[C@H]1CCc2sc(NC(=O)C3CC(F)(F)C3)c(C(=O)N[C@H]3C[C@H](F)C3)c2C1 [Example 480, (5S)-2-[(3,3-difluorocyclobutanecarbonyl)amino]-5-[3-[[5-(difluoromethyl)-2-methylpyrazol-3-yl]amino]-1,2,4-triazol-4-yl]-N-(trans-3-fluorocyclobutyl)-4,5,6,7-tetrahydro-1-benzothiophene-3-carboxamide] | < 1
22 | CC(=O)N1CCC(Nc2nncn2[C@H]2CCc3sc(NC(=O)C4CC4)c(C(=O)NCC4CC4)c3C2)CC1 [Example 286, (5S)-5-[3-[(1-acetyl-4-piperidyl)amino]-1,2,4-triazol-4-yl]-2-(cyclopropanecarbonylamino)-N-(cyclopropylmethyl)-4,5,6,7-tetrahydrobenzothiophene-3-carboxamide] | < 1
23 | O=C1CC(Nc2nncn2[C@H]2CCc3sc(NC(=O)C4CC4)c(C(=O)NCC4CC4)c3C2)CN1 (stereo partly drawn) [Example 270, (5S)-2-(cyclopropanecarbonylamino)-N-(cyclopropylmethyl)-5-[3-[(5-oxopyrrolidin-3-yl)amino]-1,2,4-triazol-4-yl]-4,5,6,7-tetrahydrobenzothiophene-3-carboxamide] | < 1
24 | Cn1nc(C(F)F)cc1Nc1nncn1[C@H]1CCc2sc(NC(=O)CC(F)F)c(C(=O)NCC3CC3)c2C1 [Example 358, (5S)—N-(cyclopropylmethyl)-5-[3-[[5-(difluoromethyl)-2-methylpyrazol-3-yl]amino]-1,2,4-triazol-4-yl]-2-(3,3-difluoropropanoylamino)-4,5,6,7-tetrahydro-1-benzothiophene-3-carboxamide] | < 1
